Test results as given in patent publication US9328093B2, “Selective inhibitors of ubiquitin specific protease 7, the pharmaceutical compositions thereof and their therapeutic applications” (HYBRIGENICS SA, priority 2010, dated 2016).

How the values were obtained:
[1] = tested on: HCT116 colon cancer cells; assay: HCT116 cell viability and proliferation assay (MTS); format: cell-based; conditions: Homo sapiens, HCT-116, 72 h, HCT116, 72 hours, read-out: Cell viability (MTS): HCT116 GI50 Day3
Procedure, shortened: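 HCT116 cells (10^3/well) treated in triplicate 24 h after seeding with 50 nM–100 μM compound, 0.5% final DMSO, for 72 h at 37 °C. Viability by MTS (2 h), absorbance 492 nm; GI50 from sigmoidal variable-slope fit, mean of three independent experiments.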

[2] = target: T1, Caspase 3 (Homo sapiens, UniProt P42574); assay: Caspase 3 activity assay (Ac-DEVD-AMC substrate); format: biochemical; conditions: Ac-DEVD-AMC 250 nM, Caspase 3 1.6 nM
T1 sequence (P42574 29-175 limits assumed): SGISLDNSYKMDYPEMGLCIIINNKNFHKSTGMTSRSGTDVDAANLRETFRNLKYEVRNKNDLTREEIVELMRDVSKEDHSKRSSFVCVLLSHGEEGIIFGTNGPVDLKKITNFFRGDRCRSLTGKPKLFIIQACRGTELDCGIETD
T1 sequence (P42574 176-277 limits assumed): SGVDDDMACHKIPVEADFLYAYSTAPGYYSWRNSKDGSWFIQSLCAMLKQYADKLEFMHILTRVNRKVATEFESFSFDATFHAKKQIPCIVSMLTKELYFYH
Method: Caspase 3 was diluted in Caspase 3 buffer (100 mM Hepes pH 7.5; 10% sucrose; 0.1% CHAPS). Compounds stocks (100 mM) were stored at −20° C. in DMSO. Compounds were tested at different concentrations: from 200 μM to 91 nM.
(§1) Reactions were performed as duplicates in Black 384 well plates (small volume microplates; Greiner; 10 μl final reaction volume). The substrate concentration for caspase 3 specificity assay was 250 nM (Ac-DEVD-AMC; Promega). The concentration of the enzyme (Caspase 3) in specificity assays was 1.6 nM. The concentrations were determined in order to perform specificity assays under initial velocities at fixed substrate concentration. Compounds were pre-incubated with enzymes for 30 minutes at 25° C. Reactions were initiated by addition of substrate to the plates containing the enzymes (+/− compounds) diluted in assay buffer. Reactions were incubated for 60 minutes at 37° C. Reactions were stopped by adding acetic acid (100 mM final). Readings were performed on a Pherastar Fluorescent Reader (BMG). λ Emission 380 nm; λ Excitation=460 nm. Data (mean values+/− standard deviation) were analyzed as % of control (no compound) and plotted as percentage versus the Log of the compound concentration using GraphPad (Prism). Data were fitted to a sigmoidal model (variable slope).

[3] = target: T2, UCH-L1 (Homo sapiens, UniProt P09936); assay: UCH-L1 activity assay (Ub-AMC substrate); format: biochemical; conditions: Ub-AMC 300 nM, UCH-L1 2.5 nM
T2 sequence (P09936 1-223): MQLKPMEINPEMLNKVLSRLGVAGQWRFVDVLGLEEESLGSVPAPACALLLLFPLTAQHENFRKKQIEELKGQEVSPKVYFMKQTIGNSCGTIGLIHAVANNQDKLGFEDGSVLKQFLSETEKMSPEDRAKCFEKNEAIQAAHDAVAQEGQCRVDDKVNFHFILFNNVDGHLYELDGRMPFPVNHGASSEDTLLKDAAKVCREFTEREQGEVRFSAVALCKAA
Method: UCH-L1 was diluted in USP buffer (50 mM Tris HCl; 0.5 mM EDTA; 5 mM DTT; 0.01% Triton X-100; Bovine Serum Albumin 0.05 mg·ml^−1 pH7.6). Compounds stocks (100 mM) were stored at −20° C. in DMSO. Compounds were tested at different concentrations: from 200 μM to 91 nM.
as §1, with “UCH-L1” for “caspase 3 specificity assay”, “300” for “250”, “Ub-AMC (Boston Biochem).” for “(Ac-DEVD-AMC; Promega).”, “(UCH-L1)” for “(Caspase 3)”, “2.5” for “1.6”, “values +/−” for “values+/−”

GI50 [1] [µM] | IC50 [2] [µM] | IC50 [3] [µM] | Structure (SMILES)
4.3 | > 200 | > 200 | O=C(NCc1cccc(CN2CCCC2)c1)c1ccc2c(Cl)c3c(nc2c1)CCCC3 [Example 18, 9-chloro-N-(3-(pyrrolidin-1-ylmethyl)benzyl)-5,6,7,8-tetrahydroacridine-3-carboxamide]
5.6 | > 200 | > 200 | O=C(NCC(CN1CCCC1)C(O)c1ccccc1)c1ccc2c(Cl)c3c(nc2c1)CCCC3 (stereo not drawn) [Example 25, 9-chloro-N-(3-hydroxy-3-phenyl-2-pyrrolidin-1-ylmethylpropyl)-5,6,7,8-tetrahydroacridine-3-carboxamide]
4.1 | > 200 | > 200 | O=C(Nc1cccc(CN2CCCC2)c1)c1ccc2c(Cl)c3c(nc2c1)CCCC3 [Example 19, 9-chloro-N-(3-(pyrrolidin-1-ylmethyl)phenyl)-5.6,7,8-tetrahydroacridine-3-carboxamide]
1.8 | > 200 | > 200 | CN(C)c1ccc(CN2CCC(CNC(=O)c3ccc4c(Cl)c5c(nc4c3)CCCC5)CC2)cc1 [Example 23]
8.3 | > 200 | > 200 | O=C(NCC1CCNCC1)c1ccc2c(Cl)c3c(nc2c1)CCCC3 [Example 24, 9-chloro-N-((piperidin-4-yl)methyl)-5,6,7,8-tetrahydroacridine-3-carboxamide]
6.9 | > 200 | > 200 | CN1CCCC1CCNC(=O)c1ccc2c(Cl)c3c(nc2c1)CCCC3 (stereo not drawn) [Example 17, 9-chloro-N-(2-(1-methylpyrrolidin-2-yl)ethyl)-5,6,7,8-tetrahydroacridino-3-carboxamide]
3.5 | > 200 | > 200 | O=C(NCc1ccc(CN2CCCC2)cc1)c1ccc2c(Cl)c3c(nc2c1)CCCC3 [Example 21, 9-chloro-N-(4-(pyrrolidin-1-ylmethyl)benzyl)-5,6,7,8-tetrahydroacridine-3-carboxamide]
3.3 | > 200 | > 200 | COc1ccc(CN2CCC(CNC(=O)c3ccc4c(Cl)c5c(nc4c3)CCCC5)CC2)cc1 [Example 22, 9-chloro-N-((1-(4-methoxybenzyl)piperidin-4-yl)methyl)-5,6,7,8-tetrahydroacridine-3-carboxamide]
8.4 | > 200 | > 200 | CC1CCCCN1CCCNC(=O)c1ccc2c(Cl)c3c(nc2c1)CCCC3 (stereo not drawn) [Example 20, 9-chloro-N-(3-(2-methylpiperidin-1-yl)propyl)-516,7,8-tetrahydroacridine-3-carboxamide]
